From US7625927B2, “Method of treating glaucoma” (Alcon Research, Ltd., priority 2006, dated 2009)

Test system: cultured adult rat retinal ganglion cells (RGCs)
Experiment: Glutamate-induced toxicity in cultured adult rat retinal ganglion cells (RGC survival, Thy-1-positive cell count)
Type: cell-based
Conditions: Compound at 1 μM, 30 min pre-treatment, then 100 μM glutamate for 3 days; Thy-1-positive healthy cells counted; 70% of RGCs survived with glutamate alone
Procedure: Adult Sprague-Dawley rats were euthanized by CO2 asphyxiation. Their eyes were enucleated and the retinas isolated. Retinal cells were treated with of papain solution for 25 min at 37° C., then washed 3 times with 5 mL RGC culture medium (Neurobasal medium with various nutrient supplements+1% fetal calf serum). Retinal cells were dispersed by trituration. Cell suspension was placed onto poly-D-lysine- and laminin-coated 8-well chambered culture slides. The cells were then cultured in 95% air/5% CO2 at 37° C.
For glutamate-induced toxicity studies, cells were pre-treated with vehicle or the indicated compounds for 30 minutes, followed by 100 μM glutamate for 3 days. At the end of the incubation period, the cells were fixed and labeled for Thy-1, a RGC marker, by immunocytochemistry. Cell survival was quantified by manually counting Thy-1-positive healthy cells in each well.

SMILES: COC(=O)CNC(=O)c1ncccc1O [Compound 1]
- protection against glutamate-induced cytotoxicity (RGC survival): protective against this insult
